# The supplement of paper PMC10307832
# What was measured:
# Experiment in all cases: relative viability (nuclei count vs DMSO), 5 days (fraction); higher = more cells survive
# Ponatinib + OSI-027 = compound: Cc1ccc(C(=O)Nc2ccc(CN3CCN(C)CC3)c(C(F)(F)F)c2)cc1C#Cc1cnc2cccnn12 [Ponatinib] + COc1cccc2cc(-c3nc([C@H]4CC[C@H](C(=O)O)CC4)n4ncnc(N)c34)[nH]c12 [OSI-027] (partner 0.5 µM)
# In short: (§1)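 Medians of duplicate plates are given as relative viability. That measure is the nuclei count in treated wells divided by the count in vehicle wells. Counts were taken on 4× images of lung cancer cell lines in 1536-well plates, 5 days after pin-tool dosing the day after seeding with one drug alone or a fixed anchor-drug dose plus five library-drug doses (not always all listed) in √10 steps.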
# Ponatinib + Pictilisib = compound: Cc1ccc(C(=O)Nc2ccc(CN3CCN(C)CC3)c(C(F)(F)F)c2)cc1C#Cc1cnc2cccnn12 [Ponatinib] + CS(=O)(=O)N1CCN(Cc2cc3nc(-c4cccc5[nH]ncc45)nc(N4CCOCC4)c3s2)CC1 [Pictilisib] (partner 1 µM)
# In short: as §1
# Pazopanib + Lapatinib = compound: Cc1ccc(Nc2nccc(N(C)c3ccc4c(C)n(C)nc4c3)n2)cc1S(N)(=O)=O [Pazopanib] + CS(=O)(=O)CCNCc1ccc(-c2ccc3ncnc(Nc4ccc(OCc5cccc(F)c5)c(Cl)c4)c3c2)o1 [Lapatinib] (partner 2 µM)
# In short: as §1
# Pazopanib + Dasatinib = compound: Cc1ccc(Nc2nccc(N(C)c3ccc4c(C)n(C)nc4c3)n2)cc1S(N)(=O)=O [Pazopanib] + Cc1nc(Nc2ncc(C(=O)Nc3c(C)cccc3Cl)s2)cc(N2CCN(CCO)CC2)n1 [Dasatinib] (partner 0.075 µM)
# In short: as §1
Cell Line,relative viability (Ponatinib + OSI-027; first compound 0.002 µM),relative viability (Ponatinib + OSI-027; first compound 0.006325 µM),relative viability (Ponatinib + OSI-027; first compound 0.06325 µM),relative viability (Ponatinib + OSI-027; first compound 0.2 µM),relative viability (Ponatinib + Pictilisib; first compound 0.002 µM),relative viability (Ponatinib + Pictilisib; first compound 0.006325 µM),relative viability (Ponatinib + Pictilisib; first compound 0.06325 µM),relative viability (Ponatinib + Pictilisib; first compound 0.2 µM),relative viability (Pazopanib + Lapatinib; first compound 0.01 µM),relative viability (Pazopanib + Lapatinib; first compound 0.03162 µM),relative viability (Pazopanib + Lapatinib; first compound 0.1 µM),relative viability (Pazopanib + Lapatinib; first compound 0.3162 µM),relative viability (Pazopanib + Lapatinib; first compound 1 µM),relative viability (Pazopanib + Dasatinib; first compound 0.01 µM),relative viability (Pazopanib + Dasatinib; first compound 0.03162 µM),relative viability (Pazopanib + Dasatinib; first compound 0.1 µM),relative viability (Pazopanib + Dasatinib; first compound 0.3162 µM),relative viability (Pazopanib + Dasatinib; first compound 1 µM)
NCI-H838,0.416,0.416,0.482,0.349,0.564,0.505,0.455,0.455,0.961,1.09,0.97,1.02,1.13,0.273,0.278,0.297,0.278,0.334
NCI-H1355,0.409,0.48,0.43,0.385,0.408,0.59,0.563,0.568,–,0.845,0.93,0.989,1.17,0.443,0.549,0.773,0.639,0.686
HOP-62,0.727,0.759,0.883,0.72,0.878,0.609,0.75,0.665,1.04,1.01,–,0.99,1.04,0.554,0.713,0.681,0.659,0.718
NCI-H2085,0.624,0.704,0.753,0.727,0.489,0.477,0.451,0.488,0.511,0.794,0.762,0.785,0.853,0.219,0.255,0.225,0.241,0.265
